Results on 3 molecules are retold here after paper PMC3752380 (Nature chemical biology, 2013).

The Kd is a measure of binding affinity in units of concentration. A higher Kd goes with lower affinity.

The target of one data set is T1, MeaB (Methylorubrum extorquens, UniProt C5AP93).
T1 sequence (C5AP93 1-329): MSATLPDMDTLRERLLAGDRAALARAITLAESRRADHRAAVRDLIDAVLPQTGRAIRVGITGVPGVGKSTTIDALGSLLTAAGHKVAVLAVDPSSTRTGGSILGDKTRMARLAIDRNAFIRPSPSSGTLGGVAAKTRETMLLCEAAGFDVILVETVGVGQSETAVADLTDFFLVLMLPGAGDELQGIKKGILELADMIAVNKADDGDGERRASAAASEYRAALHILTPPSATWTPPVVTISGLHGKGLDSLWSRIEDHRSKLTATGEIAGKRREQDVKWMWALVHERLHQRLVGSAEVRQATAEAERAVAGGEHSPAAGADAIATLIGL
Nature of the data set: isothermal titration calorimetry. The data set is classed as binding. A general note: Isothermal titration calorimetry measures the heat released or taken up as one component is titrated into another.

The data set “crystal structure” deals with the molecule itself. Nature of the data set: crystal structure.

`Nc1nc2c(ncn2[C@@H]2O[C@H](COP(=O)(O)OP(=O)(O)NP(=O)(O)O)[C@@H](O)[C@H]2O)c(=O)[nH]1` [GMPPNP] came in with a Kd at MeaB of 900 ± 200 nM.
Still for that read-out and setting: the value for `Nc1nc2c(ncn2[C@@H]2O[C@H](COP(=O)(O)OP(=O)(O)O)[C@@H](O)[C@H]2O)c(=O)[nH]1` [GDP] was 1400 ± 100 nM.

B1: MeaB (Methylobacterium extorquens AM1), wild type (natural protein)
chain: MSATLPDMDTLRERLLAGDRAALARAITLAESRRADHRAAVRDLIDAVLPQTGRAIRVGITGVPGVGKSTTIDALGSLLTAAGHKVAVLAVDPSSTRTGGSILGDKTRMARLAIDRNAFIRPSPSSGTLGGVAAKTRETMLLCEAAGFDVILVETVGVGQSETAVADLTDFFLVLMLPGAGDELQGIKKGILELADMIAVNKADDGDGERRASAAASEYRAALHILTPPSATWTPPVVTISGLHGKGLDSLWSRIEDHRSKLTATGEIAGKRREQDVKWMWALVHERLHQRLVGSAEVRQATAEAERAVAGGEHSPAAGADAIATLIGL
Take B1: in “crystal structure”, the binding result is reported as “binds”.
